Assay results as given in patent US20240238212A1, “LIPID COMPOUNDS AND LIPID NANOPARTICLE COMPOSITIONS” (SUZHOU ABOGEN BIOSCIENCES CO., LTD., priority 2022, published 2024).

Tests used:
[1] = Lipid nanoparticle size and polydispersity by dynamic light scattering; assay type: physicochemical; conditions: LNP comprising the compound
Protocol: (§1) Briefly, a cationic lipid provided herein, DSPC, cholesterol, and PEG-lipid were solubilized in ethanol at a molar ratio of 50:10:38.5:1.5, and mRNA were diluted in 10 to 50 mM citrate buffer, pH=4. The LNPs were prepared at a total lipid to mRNA weight ratio of approximately 10:1 to 30:1 by mixing the ethanolic lipid solution with the aqueous mRNA solution at a volume ratio of 1:3 using a microfluidic apparatus, total flow rate ranging from 9-30 mL/min. Ethanol were thereby removed and replaced by DPBS using dialysis. Finally, the lipid nanoparticles were filtered through a 0.2 μm sterile filter.
(§2) Lipid nanoparticle size were determined by dynamic light scattering using a Malvern Zetasizer Nano ZS (Malvern UK) using a 173° backscatter detection mode. The encapsulation efficiency of lipid nanoparticles were determined using a Quant-it Ribogreen RNA quantification assay kit (Thermo Fisher Scientific, UK) according to the manufacturer's instructions.

[2] = test system: human erythropoietin (hEPO) mRNA expression; assay: Animal Study 1: hEPO mRNA LNPs i.v. in mice, serum EPO by ELISA; assay type: in vivo; conditions: female ICR mice, 0.5 mg/kg tail vein injection, blood e.g. 6 hours post administration; relative to MC3 LNP
Protocol: Lipid nanoparticles comprising compounds in the following table encapsulating human erythropoietin (hEPO) mRNA were systemically administered to 6-8 week old female ICR mice (Xipuer-Bikai, Shanghai) at 0.5 mg/kg dose by tail vein injection and mice blood were sampled at specific time points (e.g., 6 hours) post administration. In addition to the aforementioned tested groups, lipid nanoparticles comprising dilinoleylmethyl-4-dimethylaminobutyrate (DLin-MC3-DMA, usually abbreviated to MC3) encapsulating hEPO mRNA were similarly administered at the same dose to age and gender comparative groups of mice as a positive control.
Mice were euthanized by CO2 overdoses after the last sampling time point. Serum were separated from total blood by centrifugation at 5000 g for 10 minutes at 4 T, snap-frozen and stored at −80 T for analysis. ELISA assay were carried out using a commercial kit (DEP00, R&D systems) according to manufacturer's instructions.
Characteristics of tested lipid nanoparticles, including EPO expression levels over MC3 measured from the tested group are listed in the table below.

[3] = Lipid clearance study: lipid remaining in liver tissue by LC-MS/MS; conditions: mouse liver; for % Dose Remaining in Liver Tissue, 6 h: 6 h after 0.5 mg/kg i.v. bolus dose mRNA; for % Dose Remaining in Liver Tissue, 24 h: 24 h after 0.5 mg/kg i.v. bolus dose mRNA; for % Dose Remaining in Liver Tissue, 48 h: 48 h after 0.5 mg/kg i.v. bolus dose mRNA
Protocol: LNPs were injected into mice via the tail vein (ICR female, IV, 0.5 mg mRNA/kg), then mice were anesthetized under carbon dioxide at different time (e.g., 6 h, 24 h, and 48 h) after administration and sacrificed via cardiac puncture. Liver tissue were collected immediately, and then washed by ice-cold saline. Liver samples were weighed and homogenized in ice water bath by adding pre-chilled 20% methanol-water (v/v) at 2˜8° C. with the ratio of 1:5 (w/v). The homogenized tissue samples were stored in −90˜−60° C. freezer prior to analysis.
All liver tissue homogenate samples were allowed to thaw at room temperature. An aliquot of 50 μL of sample was added with 50 μL MgCl2 (2M), then added with ACN which contains of Verapamil, 5 ng mL-1 and Glibenclamide, 50 ng mL-1 and Diclofenac, 200 ng mL^−1 and Tolbutamide, 200 ng mL^−1 for protein precipitation, then centrifuged at 13000 rpm for 8 min. Then 100 μL of supernatant was added with 100 μL water, then vortexed well. An aliquot of 5 μL of the mixture was injected into the LC-MS/MS system.

[4] = Encapsulation efficiency of lipid nanoparticles (Quant-it Ribogreen RNA assay); assay type: physicochemical; conditions: LNP comprising the compound
Protocol: as §1, §2

[5] = Apparent pKa of LNP formulations (TNS fluorescence assay); assay type: physicochemical; conditions: LNP formulation
Protocol: As reported in literature, the apparent pKa of LNP formulations correlates with the delivery efficiency of LNPs for nucleic acids in vivo. The apparent pKa of each formulation was determined using an assay based on fluorescence of 2-(p-toluidino)-6-napthalene sulfonic acid (TNS). LNP formulations comprising of cationic lipid/DSPC/cholesterol/DMG-PEG (50/10/38.5/1.5 mol %) in PBS were prepared as described above. TNS was prepared as a 300 μM stock solution in distilled water. LNP formulations were diluted to 0.1 mg/mL total lipid in 3 mL of buffered solutions containing 50 mM sodium citrate, 50 mM sodium phosphate, 50 mM sodium borate, and 30 mM sodium chloride where the pH ranged from 3 to 9. An aliquot of the TNS solution was added to give a final concentration of […] and following vortex mixing fluorescence intensity was measured at room temperature in a Molecular Devices Spectramax iD3 spectrometer using excitation and mission wavelengths of 325 nm and 435 nm. A sigmoidal best fit analysis was applied to the fluorescence data and the pKa value was measured as the pH giving rise to half-maximal fluorescent intensity.

[6] = test system: luciferase mRNA expression; assay: Animal Study 2: luciferase mRNA LNPs i.v. in mice, optical imaging; assay type: in vivo; conditions: female Balb/c mice, 0.25 mg/kg tail vein injection, e.g. 6 hours; relative to MC3 LNP
Protocol: Lipid nanoparticles comprising compounds in the following table encapsulating mRNA encoding luciferase were systemically administered to 6-8 week old female Balb/c mice (Charles River Lab, ZheJiang) at 0.25 mg/kg dose by tail vein injection and mice blood were sampled at specific time points (e.g., 6 hours) post administration. Optical imaging was performed using the IVIS Spectrum CT device (PerkinElmer Inc., Paris, France). The luminescence level was evaluated by an ROI applied to the injection site zone (Living Image software, PerkinElmer Inc., Paris, France). In addition to the aforementioned tested groups, lipid nanoparticles comprising dilinoleylmethyl-4-dimethylaminobutyrate (other names: DLin-MC3-DMA or MC3) encapsulating luciferase mRNA were similarly administered at the same dose to age and gender comparative groups of mice as a positive control.
Characteristics of tested lipid nanoparticles, including luciferase expression levels over MC3 measured from the tested group are listed in the table below.

[7] = hEPO mRNA, cationic lipid/DSPC/cholesterol/PEG-lipid 50:10:38.5:1.5

SMILES	Polydispersity ([1]; hEPO mRNA)	Size (nm) [1, 7] [nm]	% Dose Remaining in Liver Tissue, 6 h [3] [%]	% Dose Remaining in Liver Tissue, 24 h [3] [%]	% Dose Remaining in Liver Tissue, 48 h [3] [%]	Encapsulation efficiency ([4]; hEPO mRNA) [%]	Apparent pKa ([5]; TNS assay (Table 2))	Polydispersity ([1]; luciferase mRNA)	Size (nm) ([1]; luciferase mRNA)	Apparent pKa ([5]; TNS assay (Table 3))	Encapsulation efficiency ([4]; luciferase mRNA) [%]	EPO expression over MC3 [2]	luciferase expression over MC3 [6]
CCCCCCCCCCCOC(=O)CCCCCN(CCO)CCCOC(COC(=O)CCCCCCC)COC(=O)CCCCCCC [Compound 8]	0.051	95.24	1.274	0.068	0	84.70	6.992					C (≥0.1 and <1)	
CCCCCCCC(=O)OCC(COC(=O)CCCCCCC)OCCCN(CCCOC(COC(=O)CCCCCCC)COC(=O)CCCCCCC)CCN(CCO)C1CCC1 [Compound 9]	0.046	111.6	1.071	0.089	0	87.29	6.558					A (≥2)	
CCCCCCCCC(CCCCCC)COC(=O)CCCCCN(CCO)CCCCC(COC(=O)CCCCCCC)COC(=O)CCCCCCC (centres unmarked) [Compound 10]	0.084	61.45	0.981	0.19	0.038	91.36	6.624					B (≥1 and <2)	
CCCCCCCCC(CCCCCC)CNC(=O)CCCCCN(CCO)CCCCC(COC(=O)CCCCCCC)COC(=O)CCCCCCC (centres unmarked) [Compound 11]	0.082	59.17	3.1	0.537	0.139	85.63						D (<0.1)	
CCCCCCCCCCCCCCCCCC(=O)OCCCCCCN(CCCCC(COC(=O)CCCCCCC)COC(=O)CCCCCCC)C1CC(O)C1 (centres unmarked) [Compound 57]								0.026	86.07	7.046	90.36		A (≥2)
CCCCC/C=C\C/C=C\CCCCCCCC(=O)OCCCCCCN(CCCCC(COC(=O)CCCCCCC)COC(=O)CCCCCCC)C1CC(O)C1 (centres unmarked) [Compound 58]								0.053	81.27	6.948	89.76		A (≥2)
CCCCCCCCC(CCCCCC)COC(=O)CCCCCN(CCO)CCCCCC(=O)OCC(C)(COC(=O)CCCCCCC)COC(=O)CCCCCCC (centres unmarked) [Compound 83]	0.051	67.54				94.79	6.547					A (≥2)	
CCCCCCCCC(CCCCCC)COC(=O)CCCCCN(CCO)CCCCCC(=O)OCC(CC)(COC(=O)CCCCCCC)COC(=O)CCCCCCC (centres unmarked) [Compound 84]	0.022	72.82				94.81	6.355					A (≥2)	

Now from value to compound, other results behind:

Polydispersity ([1]; hEPO mRNA)	Size (nm) [1, 7] [nm]	% Dose Remaining in Liver Tissue, 6 h [3] [%]	% Dose Remaining in Liver Tissue, 24 h [3] [%]	% Dose Remaining in Liver Tissue, 48 h [3] [%]	Encapsulation efficiency ([4]; hEPO mRNA) [%]	Apparent pKa ([5]; TNS assay (Table 2))	Polydispersity ([1]; luciferase mRNA)	Size (nm) ([1]; luciferase mRNA)	Apparent pKa ([5]; TNS assay (Table 3))	Encapsulation efficiency ([4]; luciferase mRNA) [%]	SMILES	EPO expression over MC3 [2]	luciferase expression over MC3 [6]
0.073	82.87	2.646	0.098	0	89.49						CCCCCCCC(=O)OCC(CCCCN(CCCCC(COC(=O)CCCCCCC)COC(=O)CCCCCCC)CCOCCO)COC(=O)CCCCCCC [Compound 5]	A (≥2)	
							0.011	73.37	6.809	93.20	CCCCCCCC(=O)OCC(CCCCN(CCCCC(COC(=O)CCCCCCC)COC(=O)CCCCCCC)CCCNc1c(N(CC)CCO)c(=O)c1=O)COC(=O)CCCCCCC [Compound 60]		C (≥0.1 and <1)
0.037	67.7				95.70	6.171					CCCCCCCC(=O)OCC(COC(=O)CCCCCCC)COC(=O)CCCCCN(CCCCCCCO)CCCCCC(=O)OCC(COC(=O)CCCCCCC)COC(=O)CCCCCCC [Compound 70]	B (≥1 and <2)	
0.098	68.05				96.34	6.599					CCCCCCCCCC(=O)OCC(COC(=O)CCCCCCCCC)COC(=O)CCCCCN(CCO)CCCCCC(=O)OCC(COC(=O)CCCCCCCCC)COC(=O)CCCCCCCCC [Compound 71]	A (≥2)	
0.111	72.07				96.28	6.728					CCCCCCCCCCC(=O)OCC(COC(=O)CCCCCCCCCC)COC(=O)CCCCCN(CCO)CCCCCC(=O)OCC(COC(=O)CCCCCCCCCC)COC(=O)CCCCCCCCCC [Compound 72]	A (≥2)	
0.010	71.34				96.37	6.536					CCCCCCCCCCCC(=O)OCC(COC(=O)CCCCCCCCCCC)COC(=O)CCCCCN(CCO)CCCCCC(=O)OCC(COC(=O)CCCCCCCCCCC)COC(=O)CCCCCCCCCCC [Compound 73]	C (≥0.1 and <1)	
0.012	66.23				94.82	6.283					CCCCCCCCCCCCC(=O)OCC(COC(=O)CCCCCCCCCCCC)COC(=O)CCCCCN(CCO)CCCCCC(=O)OCC(COC(=O)CCCCCCCCCCCC)COC(=O)CCCCCCCCCCCC [Compound 74]	C (≥0.1 and <1)	
0.074	66.83				93.47	6.703					CCCCCCCCC(=O)OCC(COC(=O)CCCCCCCC)COC(=O)CCCCCN(CCO)CCCCCC(=O)OCC(COC(=O)CCCCCCCC)COC(=O)CCCCCCCC [Compound 75]	A (≥2)	
0.010	69.37				95.75	6.342					CCCCCCCC(=O)OCC(CC)(COC(=O)CCCCCCC)COC(=O)CCCCCN(CCO)CCCCCC(=O)OCC(CC)(COC(=O)CCCCCCC)COC(=O)CCCCCCC [Compound 82]	A (≥2)	
